Holding throughout (format): biochemical
The target in one test is T1, MMP-8 (Homo sapiens, UniProt P22894).
T1 construct: catalytic domain (^99Phe˜^262Gly) was amplified with PCR; His-tag; enterokinase digestion-site; made in house; host or cells: Escherichia coli
Put plainly: Assay for inhibitory activities on MMPs (fluorogenic peptide substrate), MMP-8. The following applies: catalytic domain 99Phe-262Gly; substrate MOCAc-Pro-Leu-Gly-Leu-A2Pr(DNP)-Ala-Arg-NH2. From the text:
In regard to MMP-8, catalytic domain (^99Phe˜^262Gly) was amplified with PCR using commercial available Human Bone Marrow cDNA. This was cloned in Escherichia. coli expression vector pTrc99AHE inserted with His-tag sequence and enterokinase digestion-site, induced and expressed by IPTG (Isopropyl-β-D-thiogalactopyranoside) and expressed in a insoluble fraction (Thau F. Ho, M. Walid Qoronfleh, Robert C. Wahl, Trica A. Pulvino, Karen J. Vavra, Joe Falvo, Tracey M. Banks, Patricia G. Brake and Richard B. Ciccarelli: Gene expression, purification and characterization of recombinant human neutrophil collagenase. Gene 146, (1994) 297-301, Prepared by the a improved method of this material). Isolation of MMP-8 from an insoluble fraction was carried out by dissolving in modifier (6M urea) by a usual method and purification with metal chelate chromatography. And then removing modifier (6M urea) with dialysis and refolding of the enzyme spontaneously gave activated MMP-8.
(§1) The enzymatic activity on MMPs was analyzed by the method described in “C. Graham Knight, Frances Willenbrock and Gillian Murphy: A novel coumarin-labelled peptide for sensitive continuous assays of the matrix metalloproteinases: FEBS LETT., 296, (1992), 263-266”. The substrate MOCAc-Pro-Leu-Gly-Leu-A2Pr(DNP)-Ala-Arg-NH2 was purchased from Peptide Institute, Inc., Osaka, Japan. The measurement of the inhibitory activities (IC50) was carried out by the following four methods;
(§2) (A) Reaction with substrate, enzyme (MMPs) and inhibitor
(§3) (B) Reaction with substrate and inhibitor, without enzyme
(§4) (C) Reaction with substrate and enzyme (MMPs), without inhibitor
(§5) (D) Reaction with substrate only
(§6) IC50 values were calculated by using the following formula and each fluorescence values of above four methods (A to D). % inhibition={1−(A−B)/(C−D)}×100 IC50 means the concentration required to inhibit 50% of the enzyme activity.

Another test has as its target T2, MMP-9 (Homo sapiens, UniProt P14780).
T2 construct: endogenous in cells; host or cells: HT1080 human fibrosarcoma cells, TPA-stimulated; enzyme purified from conditioned medium
Briefly: Assay for inhibitory activities on MMPs (fluorogenic peptide substrate), MMP-9. To be noted: MMP-9 from HT1080 cells, activated by TPCK-Trypsin; substrate MOCAc-Pro-Leu-Gly-Leu-A2Pr(DNP)-Ala-Arg-NH2.
Text: MMP-9 was isolated and purified by procedures described in as follows: Yasunori Okada, Yukio Gonoji, Katsumi Naka, Katsuro Tomita, Isao Nakanishi, Kazushi Iwata, Kyoko Yamashita, and Taro Hayakawa: Matrix metalloproteinase 9 (92-kDa gelatinase/type IV collagenase) from HT1080 human fibrosarcoma cells. Purification and activation of the precursor and enzymic properties J. Biol. Chem., 1992, 267 21712-21719, in combination with others: 1)Yasunori Okada, Tatsuhisa Morodomi, Jan J, Enghild, ko Suzuki, Atsushi Yasui, Isao Nakanishi, Guy Salvesen and Hideaki Nagase: Matrix metalloproteinase 2 from human rheumatoid synovial fibroblasts. Purification and activation of the precursor and enzymic properties. Eur. J. Biochem. 1990, 194 721-730; 2)Robin V Ward, Rosalind M Hembry, John J Reynolds and Gillian Murphy: The purification of tissue inhibitor of metalloproteinase-2 from its 72 kDa progelatinase complex. Biochem. J. 1991 278 179-187. In detail, human fibrosarcoma ATCC HT1080 cell line was cultured to confluent in Dulbecco's Modified Medium (DMEM) containing 10% fetal-calf serum at 37° C. for 48 hours. Subsequently, the medium of confluent culture was changed to serum-free DMEM medium. To obtain MMP-9, Phorbol-12-myristate-13-acetate (TPA) must be added to this serum-free DMEM medium at a concentration of 50 ng/ml. The TPA treated medium was centrifuged at 3000 rpm for 15 min and the supernatant was concentrated to 450 ml by a Toyo-Roshi UP-20 apparatus with an ultrafiltration membrane. Then, proMMP-9 in this concentrated solution was purified by using columns of Gelatin-Sepharose and Concanavalin A-Sepharose. The pool containing proMMP-9 was dialyzed, concentrated (Toyo-Roshi UP-20) and applied to columns of Sephacryl S-200 and Green A matrix for the separation from TIMPs. The obtained proMMP-9 fraction was activated by TPCK-Trypsin (Final conc. 3 μg/501 μl React Mix.).
as §1, §2, §3, §4, §5, §6

The next test concerns the target T3, MMP-13 (Homo sapiens, UniProt P45452).
T3 construct: catalytic domain (^104Tyr˜^267Gly) was amplified with RT-PCR; His-tag; enterokinase digestion-site; made in house; host or cells: Escherichia coli
Put plainly: Assay for inhibitory activities on MMPs (fluorogenic peptide substrate), MMP-13. To be noted: catalytic domain 104Tyr-267Gly; substrate MOCAc-Pro-Leu-Gly-Leu-A2Pr(DNP)-Ala-Arg-NH2. The procedure:
(§7) In regard to MMP-13, mRNA was prepared from carcinoma cell SW1353 derived from human cartilage stimulate by IL-1, TNF and catalytic domain (^104Tyr˜^267Gly) was amplified with RT-PCR. This was cloned in Escherichia. coli expression vector pTrc99AHE inserted with His-tag sequence and enterokinase digestion-site, induced and expressed by IPTG (Isopropyl-β-D-thiogalactopyranoside) and expressed in a insoluble fraction. Isolation of MMP-13 from an insoluble fraction was carried out by dissolving in modifier (6M urea) by a usual method and purification with metal chelate chromatography (Ni Chelateing Sepharose). And then removing modifier (6M urea) with dialyze and refolding of the enzyme spontaneously gave activated MMP-13.
as §1, §2, §3, §4, §5, §6

The target of a further test is T4, MMP-12 (Homo sapiens, UniProt P39900).
T4 construct: catalytic domain(^100Phe˜^263Gly) was amplified with RT-PCR; His-tag; enterokinase digestion-site; made in house; host or cells: Escherichia coli
T4 sequence (P39900 100-263): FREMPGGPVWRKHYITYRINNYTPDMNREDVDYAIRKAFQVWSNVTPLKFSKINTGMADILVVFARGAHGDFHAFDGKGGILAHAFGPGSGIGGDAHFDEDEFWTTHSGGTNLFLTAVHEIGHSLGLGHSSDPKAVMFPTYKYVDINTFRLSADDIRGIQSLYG
Briefly: Assay for inhibitory activities on MMPs (fluorogenic peptide substrate), MMP-12. The following applies: catalytic domain 100Phe-263Gly; substrate MOCAc-Pro-Leu-Gly-Leu-A2Pr(DNP)-Ala-Arg-NH2. The procedure:
as §7, with “MMP-12,” for “MMP-13, mRNA was prepared from carcinoma cell SW1353 derived from human cartilage stimulate by IL-1, TNF and”, “domain(^100Phe˜^263Gly)” for “domain (^104Tyr˜^267Gly)”, “RT-PCR from Human Placenta Total RNA.” for “RT-PCR.”, “MMP-12” for “MMP-13”, “dialysis” for “dialyze”, “MMP-12.” for “MMP-13.”
as §1, §2, §3, §4, §5, §6

In the next test the target is T5, MMP-2 (Homo sapiens, UniProt P08253).
T5 construct: purchased Calbiochem-Novabiochem International, Inc
T5 sequence (P08253 110-660): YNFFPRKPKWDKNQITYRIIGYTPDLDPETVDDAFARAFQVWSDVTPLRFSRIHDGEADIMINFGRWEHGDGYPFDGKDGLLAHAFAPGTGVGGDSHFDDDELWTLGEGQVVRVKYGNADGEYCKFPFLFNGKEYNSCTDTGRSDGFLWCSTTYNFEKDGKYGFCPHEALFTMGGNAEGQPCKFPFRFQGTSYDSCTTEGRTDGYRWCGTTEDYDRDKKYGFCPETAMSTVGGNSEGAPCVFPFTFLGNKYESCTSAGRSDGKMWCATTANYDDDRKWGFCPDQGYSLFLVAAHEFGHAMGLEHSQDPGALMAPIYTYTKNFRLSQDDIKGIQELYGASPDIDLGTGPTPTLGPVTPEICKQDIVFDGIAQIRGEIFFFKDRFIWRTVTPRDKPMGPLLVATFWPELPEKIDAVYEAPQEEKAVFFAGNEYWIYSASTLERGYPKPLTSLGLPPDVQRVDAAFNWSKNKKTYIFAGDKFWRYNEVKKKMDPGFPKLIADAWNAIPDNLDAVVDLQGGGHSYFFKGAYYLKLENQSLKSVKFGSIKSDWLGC
Briefly: Assay for inhibitory activities on MMPs (fluorogenic peptide substrate), MMP-2. To be noted: purchased MMP-2; substrate MOCAc-Pro-Leu-Gly-Leu-A2Pr(DNP)-Ala-Arg-NH2. The procedure: MMP-2 was purchased from Calbiochem-Novabiochem International, Inc.
as §1, §2, §3, §4, §5, §6

T2 sequence (P14780 107-707 limits assumed): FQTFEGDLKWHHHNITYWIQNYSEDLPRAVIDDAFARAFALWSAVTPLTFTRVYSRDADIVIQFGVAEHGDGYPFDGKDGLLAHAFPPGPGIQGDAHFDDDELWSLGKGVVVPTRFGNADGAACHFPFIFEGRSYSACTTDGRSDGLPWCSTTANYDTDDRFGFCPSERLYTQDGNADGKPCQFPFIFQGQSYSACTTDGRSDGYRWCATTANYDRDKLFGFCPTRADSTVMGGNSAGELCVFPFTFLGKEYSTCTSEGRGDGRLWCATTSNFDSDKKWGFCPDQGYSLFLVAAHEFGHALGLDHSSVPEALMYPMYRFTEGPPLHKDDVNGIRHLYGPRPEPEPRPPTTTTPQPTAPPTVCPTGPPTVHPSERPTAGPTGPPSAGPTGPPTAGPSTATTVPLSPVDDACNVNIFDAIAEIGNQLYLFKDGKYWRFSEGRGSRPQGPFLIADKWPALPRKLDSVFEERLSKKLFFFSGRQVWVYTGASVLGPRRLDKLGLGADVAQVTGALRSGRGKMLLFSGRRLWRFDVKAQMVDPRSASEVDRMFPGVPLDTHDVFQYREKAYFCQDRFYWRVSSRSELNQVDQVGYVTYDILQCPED
T1 sequence (P22894 99-262): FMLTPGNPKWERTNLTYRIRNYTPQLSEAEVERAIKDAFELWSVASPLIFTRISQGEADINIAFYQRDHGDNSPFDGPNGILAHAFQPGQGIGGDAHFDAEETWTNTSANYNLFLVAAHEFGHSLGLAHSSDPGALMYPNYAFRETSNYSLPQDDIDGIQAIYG

With `CC(C)[C@@H](NS(=O)(=O)c1ccc(-c2ncc(-c3ccc(Br)cc3)o2)cc1)C(=O)O` [Compound A-27], the IC50 amounted to 57.3 nM against MMP-8; 67.9 nM at MMP-9; 54.5 nM against MMP-13; 1.55 nM at MMP-12; 6.08 nM against MMP-2.
For `O=C(O)C[C@@H](NS(=O)(=O)c1ccc(-c2ncc(-c3ccc(Cl)cc3)s2)cc1)C(=O)O` [Compound B-38], in that order: 104 nM, 11.6 nM, 7.43 nM, 2.54 nM and 2.14 nM.
The matching figures for `CSCC[C@@H](NS(=O)(=O)c1ccc(-c2ncc(-c3ccc(Cl)cc3)s2)cc1)C(=O)O` [Compound B-46]: 57 nM, 24 nM, 11 nM, 1.08 nM and 1.17 nM.
For `COc1ccc(-c2cnc(-c3ccc(S(=O)(=O)N[C@H](C)C(=O)O)cc3)s2)cc1` [Compound B-23], in that order: 15.4 nM, 16.2 nM, 2.04 nM, 1.37 nM and 0.479 nM.
For the molecule `C[C@@H](NS(=O)(=O)c1ccc(-c2ncc(-c3ccc(F)cc3)s2)cc1)C(=O)O` [Compound B-27], the IC50 on MMP-8 amounted to 25.2 nM; at MMP-9, 13.3 nM; on MMP-13, 15.3 nM; against MMP-12 it was 3.29 nM; at MMP-2, 0.901 nM.
The matching figures for `COc1ccc(-c2cnc(-c3ccc(S(=O)(=O)N[C@H](C)C(=O)O)cc3)o2)cc1` [Compound A-8]: 25.2 nM, 218 nM, 22.6 nM, 2.78 nM and 3.37 nM.
`O=C(O)[C@H](Cc1ccccc1)NS(=O)(=O)c1ccc(-c2ncc(-c3ccc(Cl)cc3)s2)cc1` [Compound B-14]: the half-inhibitory concentration (IC50) against MMP-8 worked out at 72.8 nM; at MMP-9 it was 19.5 nM; against MMP-13 it was 11 nM; against MMP-12, 2.49 nM; at MMP-2 it was 2.56 nM.
The matching figures for `CC(C)[C@H](NS(=O)(=O)c1ccc(-c2ncc(-c3ccc(F)cc3)s2)cc1)C(=O)O` [Compound B-9]: 12.5 nM, 55 nM, 13.1 nM, 1.33 nM and 8.05 nM.
For `CSCC[C@@H](NS(=O)(=O)c1ccc(-c2ncc(-c3ccccc3)s2)cc1)C(=O)O` [Compound B-45], in that order: 29 nM, 26.3 nM, 17.5 nM, 2.66 nM and 2.15 nM.
For `COc1ccc(-c2cnc(-c3ccc(S(=O)(=O)N[C@H](Cc4ccccc4)C(=O)O)cc3)o2)cc1` [Compound A-14], the IC50 was 7.07 nM at MMP-8; 174 nM on MMP-9; 5.51 nM against MMP-13; 1.88 nM at MMP-12; 2.66 nM against MMP-2.
The matching figures for `CC(C)[C@@H](NS(=O)(=O)c1ccc(-c2ncc(-c3ccc(Cl)cc3)s2)cc1)C(=O)O` [Compound B-4]: 56.9 nM, 5.71 nM, 5.51 nM, 3.06 nM and 1.27 nM.
The matching figures for `CC(C)[C@H](NS(=O)(=O)c1ccc(-c2ncc(-c3ccccc3)s2)cc1)C(=O)O` [Compound B-3]: 18.9 nM, 70.5 nM, 15 nM, 3.16 nM and 7.45 nM.
For `O=C(O)[C@@H](Cc1ccccc1)NS(=O)(=O)c1ccc(-c2ncc(-c3ccc(Cl)cc3)s2)cc1` [Compound B-13], in that order: 92.3 nM, 11.8 nM, 5.08 nM, 1.41 nM and 1.2 nM.
For the molecule `O=C(O)[C@@H](Cc1c[nH]c2ccccc12)NS(=O)(=O)c1ccc(-c2ncc(-c3ccc(Cl)cc3)s2)cc1` [Compound B-51], the IC50 was found to be 66 nM against MMP-8; 4.24 nM on MMP-9; 2.66 nM against MMP-13; 0.761 nM at MMP-12; 0.276 nM against MMP-2.
The matching figures for `C[C@@H](NS(=O)(=O)c1ccc(-c2ncc(-c3ccccc3)s2)cc1)C(=O)O` [Compound B-21]: 58.2 nM, 19.9 nM, 22 nM, 5.86 nM and 1.47 nM.

By IC50 is commonly meant the concentration that inhibits the measured activity by half.
